Reference: US20240390434A1, “PROBIOTIC ENHANCERS AND USES THEREOF” (Blis Technologies Limited, priority 2021, published 2024)

Experiments:
Assay type in all cases: cell-based
indicator strains = assay: Deferred antagonism assay, producer S. salivarius K12: total strains inhibited; settings: for Total stains inhibited / Total strains inhibited / Total number of strains inhibited: K12
Experimental: (§1) 1-2 producer strain colonies were transferred from a stock plate into 900 μL of suspension solution using a fresh cotton swab. Following this, suspensions were vortexed, and a sample was inoculated onto solid culture media using a fresh cotton swab. The inoculation was a streak that runs diametrically across the agar plate in a 1.5 cm wide strip. The plate was then incubated. Following incubation all visible colonies were removed by swabbing them from the agar surface. The plates were then treated with chloroform by dispensing 2 ml of chloroform onto 4 cm×4 cm piece of cloth and sealing the inverted agar plate on top for 30 minutes. The plates were then air dried for 30 minutes following chloroforming. 1-2 indicator strain colonies were then transferred from a stock plate into complementary suspension solution. The suspensions were then vortexed, and a sample was inoculated onto the same agar surface. These samples were streaked in a perpendicular direction to the initial producer streak.
(§2) Each indicator streak was prepared with fresh a suspension containing cells from a corresponding stock plate containing the indicator strain of interest. Indicator strains suspension samples were transferred using a fresh cotton swab. Results were measured by qualitatively reviewing the subsequent (if any) sizes of the zones of inhibition (ZOI) of indicator strain colony growth. A positive result is when there is a distinctive reduction or complete inhibition of indicator colony growth on the culture medium.
(§3) CABCa agar plates containing various concentrations of saccharide were prepared according to the methods described in Method 1. Producer strains were transferred from stock agar plates into 900 μL THB using a fresh cotton swab. A plastic spread plater was cut to approximately 1.2 cm width and then dipped into ethanol and left to air dry to ensure sterility. A 100 μL sample of the producer strain suspension was then dispensed onto the agar surface in a straight line running diametrically across the agar surface in (approximately) 20 μL spots. The spots were spaced approximately 1.5 cm apart from each other. The plastic spreader was then used to evenly distribute the spots across the agar surface in a 1.5 cm wide strip. This step was taken to ensure an even producer streak was inoculated onto the agar surface and provided an approximate measure of the initial inoculum concentration. Separate plastic spreaders were used for samples containing different producer strains. The samples were left to soak into the agar surface until there was no visible liquid remaining on the agar surface (approximately 20 minutes). Following producer streak preparations, the deferred antagonism assay protocol was followed as per Method 2. Results were recorded by measuring the size of the zone of inhibition (ZOI) in mm.
(§4) A dose response assay was carried out according to method 3 above, except a 1.2 cm streak was used. For the individual saccharide testing the pH of the producer streak was adjusted after the growth of producer to change the acidic conditions.
(§5) A deferred antagonism assay was conducted using K12 or M18 raw ingredient suspended in Todd Hewitt broth (THB). This was spread as a 1.2 cm streak containing approximately 1-2×10^6 cfu down the middle of a CABCa control or CABCa galactose supplemented test plate. After 18 hrs growth at 37° C. with 5% CO2, bacterial growth was removed, and the pH of the agar in the initial streak was measured and adjusted to a pH of 6.5-7.5 using 0.5M sodium carbonate pH11 before sterilizing the agar surface using chloroform vapor. Bacterial test strains were suspended in i-THB before being swabbed across the plates perpendicular to the initial streak. Plates were incubated for a further 18 hrs incubation at 37° C. with 5% CO2 before measuring (mm) any zones of inhibition for each test strain, […]

S. pyogenes 71-698 = assay: Deferred antagonism assay, producer S. salivarius M18
Experimental: as §1, §2, §3, §4, §5

ENTR indicator strains = assay: Dose response deferred antagonism assay, producer M18: average over indicators
[1] = tested on: S. pyogenes strain as well as other microorganisms; assay: Inhibitory activity of M18 grown in M17 broth with saccharides; settings: saccharide 0.83% or 2.5% w/v, vs control
[2] = tested on: indicator bacterial test strains; assay: Inhibitory activity of freeze dried raw ingredient powder, K12; settings: galactose 0.5% w/w; raffinose 2.5% w/w; or combination
Experimental: (§6) Method: The amount of raffinose and galactose used was calculated based on the volume of the area of the producer streak, (which was calculated to be 4.25 g) to allow for the absorption of the saccharides into the agar. Based on this, amount of 0.021 g (i.e. 0.5% w/w galactose of 4.25 g agar volume) of galactose, 0.11 g (i.e 2.5% w/w) of raffinose and the combination of galactose (0.5% w/w) and raffinose (2.5% w/w) (0.13 g total) were weighed into sterile containers. K12 and/or M18 raw ingredient were suspended and diluted with sterile distilled water to a concentration of 1-2×10^6 cfu/100 μl. Then, […] of K12 only, M18 only, and K12±M18 suspensions were spread as a 1 cm streak down the middle of a CABCa agar plate using a sterile spreader. […] Bacterial growth was then removed using a microscope slide, and the pH of the agar in the producer streak area was measured and adjusted to pH 6.5-7.5 using 0.5M sodium carbonate (pH 11) before surface sterilizing the plates with chloroform vapour. […] Zones of inhibition for each test organism were then measured in mm using a ruler. The amount of raffinose and galactose to be used was calculated based on the volume of the area of the producer streak, (which was calculated to be 4.25 g) to allow for absorption into the agar.

[3] = tested on: indicator bacterial test strains; assay: Inhibitory activity of freeze dried raw ingredient powder, M18; settings: galactose 0.5% w/w; raffinose 2.5% w/w; or combination
Experimental: as §6

[4] = tested on: indicator bacterial test strains; assay: Inhibitory activity of freeze dried raw ingredient powder, K12 and M18 combination; settings: galactose 0.5% w/w; raffinose 2.5% w/w; or combination
Experimental: as §6

[5] = tested on: representative microorganisms from skin, dental, oral, ENTR diseases; assay: Dose response assay with dairy free K12 or M18; settings: 2.5% w/w raffinose vs equal weight percentage of saccharides; pH adjusted
Experimental: as §3, with “mm. […]” for “mm.”

SMILES: O=C[C@H](O)[C@@H](O)[C@@H](O)[C@H](O)CO [Galactose, D-galactose]
- Total stains inhibited (indicator strains; Galactose 0.5% w/w): 5/6
- Total stains inhibited (indicator strains; Galactose 1.25% w/w): 5/7
- Total stains inhibited (indicator strains; Galactose 1.7% w/w): 4/7
- Total stains inhibited (indicator strains; Galactose 2.5% w/w): 4/7
- Total stains inhibited (indicator strains; Galactose 3.3% w/w): 2/7
- Total stains inhibited (indicator strains; Galactose 5% w/w): 0/7
- Total strains inhibited (indicator strains; saccharide 3.3% w/v): 0/3
- Total strains inhibited (indicator strains; saccharide range 0.83%-3.3% w/v): 1/3
- inhibitory activity (potency) and spectrum of Blis K12 and Blis M18 (indicator strains; only at 0.5% w/w Galactose): enhanced inhibitory activity
- zone of inhibition at 0.5 % strength (S. pyogenes 71-698; Streptococcus pyogenes, 71698, M18, Galactose 0.5% w/w, read-out: Size of zone inhibition normalised to control, S. pyogenes 71-698): 19.5 mm
- zone of inhibition at 1.25 % strength (S. pyogenes 71-698; Streptococcus pyogenes, 71698, M18, Galactose 1.25% w/w, read-out: Size of zone inhibition normalised to control, S. pyogenes 71-698): 13.5 mm
- zone of inhibition at 1.7 % strength (S. pyogenes 71-698; Streptococcus pyogenes, 71698, M18, Galactose 1.7% w/w, read-out: Size of zone inhibition normalised to control, S. pyogenes 71-698): 9.5 mm
- zone of inhibition at 2.5 % strength (S. pyogenes 71-698; Streptococcus pyogenes, 71698, M18, Galactose 2.5% w/w, read-out: Size of zone inhibition normalised to control, S. pyogenes 71-698): 16.5 mm
- zone of inhibition at 3.3 % strength (S. pyogenes 71-698; Streptococcus pyogenes, 71698, M18, Galactose 3.3% w/w, read-out: Size of zone inhibition normalised to control, S. pyogenes 71-698): 9.5 mm
- zone of inhibition at 5 % strength (S. pyogenes 71-698; Streptococcus pyogenes, 71698, M18, Galactose 5% w/w, read-out: Size of zone inhibition normalised to control, S. pyogenes 71-698): 9.5 mm
- Average ZOI change (ENTR indicator strains; 1.5% galactose): 11.5 mm
- inhibitory activity of M18 grown in presence of saccharide [1]: greater inhibitory activity
- inhibitory activity of freeze-dried raw ingredient powder of K12 [2]: induced the inhibitory activity
- inhibitory activity of freeze-dried raw ingredient powder of M18 [3]: induced the inhibitory activity
- inhibitory activity of freeze-dried raw ingredient powder of K12 and M18 combination [4]: induced the inhibitory activity
- inhibitory action of dairy free K12 or M18 [5]: enhanced inhibitory activity

SMILES: OC[C@H]1O[C@H](OC[C@H]2O[C@H](O[C@]3(CO)O[C@H](CO)[C@@H](O)[C@@H]3O)[C@H](O)[C@@H](O)[C@@H]2O)[C@H](O)[C@@H](O)[C@H]1O [Raffinose, D-(+) Raffinose pentahydrate]
- Total number of strains inhibited (indicator strains; Raffinose 1.7% wt): 6
- Total number of strains inhibited (indicator strains; Raffinose 1.7% wt, pH adjusted): 5
- Total number of strains inhibited (indicator strains; Raffinose 2.5% wt): 7
- Total number of strains inhibited (indicator strains; Raffinose 2.5% wt, pH adjusted): 6
- Total number of strains inhibited (indicator strains; Raffinose 3.3% wt): 5
- Total number of strains inhibited (indicator strains; Raffinose 3.3% wt, pH adjusted): 5
- Total number of strains inhibited (indicator strains; Raffinose 5% wt): 6
- Total number of strains inhibited (indicator strains; Raffinose 5% wt, pH adjusted): 6
- Total number of strains inhibited (indicator strains; Raffinose 10% wt): 6
- Total number of strains inhibited (indicator strains; Raffinose 10% wt, pH adjusted): 6
- Total strains inhibited (indicator strains; saccharide 3.3% w/v): 3/3
- Total strains inhibited (indicator strains; saccharide range 2.5%-10% w/v): 3/3
- number of the indicators tested inhibited (indicator strains; Raffinose 1.7, 2.5, 3.3 and 5%, K12 or M18): at least 7
- inhibitory spectrum of K12 or M18 (indicator strains; Raffinose (2.5%)): inhibit several ENTR, dental and skin pathogens and S. salivarius strains
- inhibition by M18 of S. pyogenes (S. pyogenes 71-698; 0.5 to 10% w/v raffinose): increase in inhibition
- Zone of inhibition S. pyogenes 71-698 (S. pyogenes 71-698; M18, Raffinose 1.7% wt, pH adjusted): 10 mm
- Zone of inhibition S. pyogenes 71-698 (S. pyogenes 71-698; M18, Raffinose 2.5% wt): 8 mm
- Zone of inhibition S. pyogenes 71-698 (S. pyogenes 71-698; M18, Raffinose 2.5% wt, pH adjusted): 7 mm
- Zone of inhibition S. pyogenes 71-698 (S. pyogenes 71-698; M18, Raffinose 3.3% wt): 8 mm
- Zone of inhibition S. pyogenes 71-698 (S. pyogenes 71-698; M18, Raffinose 3.3% wt, pH adjusted): 7 mm
- Zone of inhibition S. pyogenes 71-698 (S. pyogenes 71-698; M18, Raffinose 5% wt): 5 mm
- Zone of inhibition S. pyogenes 71-698 (S. pyogenes 71-698; M18, Raffinose 5% wt, pH adjusted): 5 mm
- Zone of inhibition S. pyogenes 71-698 (S. pyogenes 71-698; M18, Raffinose 10% wt): 0 mm
- Zone of inhibition S. pyogenes 71-698 (S. pyogenes 71-698; M18, Raffinose 10% wt, pH adjusted): 0 mm
- Average ZOI change (ENTR indicator strains; 1.5% raffinose): 22.16 mm
- inhibitory activity of M18 grown in presence of saccharide [1]: greater inhibitory activity
- inhibitory activity of freeze-dried raw ingredient powder of K12 [2]: induced the inhibitory activity
- inhibitory activity of freeze-dried raw ingredient powder of M18 [3]: induced the inhibitory activity
- inhibitory activity of freeze-dried raw ingredient powder of K12 and M18 combination [4]: induced the inhibitory activity
- inhibitory action of dairy free K12 or M18 [5]: enhanced inhibitory action
